Measured values as given in ChEMBL document CHEMBL1201862, “PubChem BioAssay data set” (2004).
Activity calls are given as the source filed them.

How the values were obtained:
[1] = viability loss in HEK293T cells – cell-based, cherry-picks, cytotoxicity control for HIV Vif inhibitor project, dose response (AID 652208); type: functional
[2] = target: G-protein coupled receptor 55 (Homo sapiens, UniProt Q9Y2T6); experiment: inhibition of LPI-stimulated GPR55 beta-arrestin translocation – imaging, U2OS, beta-arrestin-GFP, LPI agonist, primary screen (AID 2013); type: functional;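 also: antagonist potency measured as reduced agonist-driven arrestin aggregation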
[3] = microbe, parasite or virus in culture; type: functional; conditions: Mycobacterium tuberculosis
[4] = target: Fructose-bisphosphate aldolase (Mycobacterium tuberculosis, UniProt P9WQA3); experiment: Fluorescence-based biochemical high throughput dose response assay for inhibitors of the fructose-bisphosphate aldolase (FBA) of M. tuberculosis.; type: functional
[5] = target: Adenosylmethionine-8-amino-7-oxononanoate aminotransferase (Mycobacterium tuberculosis, UniProt P9WQ81); experiment: Mycobacterium tuberculosis BioA enzyme inhibitor Measured in Biochemical System Using Plate Reader - 2163-02_Inhibitor_Dose_CherryPick_Activity.; type: functional, Mycobacterium tuberculosis UT205
[6] = target: Protein-tyrosine kinase 2-beta (Homo sapiens, UniProt Q14289);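 also: potency of inhibitors of PYK2 kinase phosphorylation of poly-GT substrate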
Beta-lactamase [7] = target: T1, Beta-lactamase (Pseudomonas aeruginosa, UniProt Q79MP6); experiment: inhibition of IMP-1 beta-lactamase activity – biochemical, epi-absorbance, selectivity assay for VIM-2 inhibitor project, dose response (AID 1920)
Beta-lactamase [8] = target: Beta-lactamase (Salmonella choleraesuis (strain SC-B67), UniProt Q5J463); experiment: Epi-absorbance-based counterscreen for selective VIM-2 inhibitors: dose response biochemical high throughput screening assay to identify inhibitors of TEM-1 serine-beta-lactamase.
Beta-lactamase [9] = target: T1, Beta-lactamase; experiment: […] counterscreen for selective VIM-2 inhibitors: dose response biochemical high throughput screening assay to identify inhibitors of IMP-1 metallo-beta-lactamase.
Caspase-6 = target: T2, Caspase-6 (Homo sapiens, UniProt P55212); experiment: inhibition of CASP6 peptide cleavage – biochemical, VEID-R110 fluorescence, cherry-pick, dose response (AID 720632)
T2 sequence (P55212 whole entry): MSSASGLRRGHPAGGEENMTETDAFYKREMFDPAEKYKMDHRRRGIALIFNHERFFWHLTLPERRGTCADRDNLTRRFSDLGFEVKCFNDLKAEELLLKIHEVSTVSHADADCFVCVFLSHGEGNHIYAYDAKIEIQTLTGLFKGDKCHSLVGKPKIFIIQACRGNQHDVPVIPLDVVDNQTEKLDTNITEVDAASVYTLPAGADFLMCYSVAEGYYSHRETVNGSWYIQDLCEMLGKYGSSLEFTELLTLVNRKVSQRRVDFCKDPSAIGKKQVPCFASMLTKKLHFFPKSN

[10] = inhibition of ARNT PAS-B/TACC3 complex formation – biochemical, AlphaScreen, cherry-picked samples, confirmation (AID 651703); type: functional, Homo sapiens;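 also: His-tagged ARNT PAS-B domain paired with GST-TACC3 E629A dimer coactivator fragment; potency of inhibitors that break up the complex and lower AlphaScreen signal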
[11] = cytotoxicity in HEK293 background cells – cell-based, dry powder, set 2, counter-screen for EBV LMP1 inhibitor project, dose response (AID 624374); type: functional
[12] = viability of HT1080 fibrosarcoma cells – cell-based, ATPLite luminescence, set 1, cytotoxicity control for MT1-MMP activation inhibitor project, dose response (AID 652252); type: functional
[13] = target: Matrix metalloproteinase-14 (Homo sapiens, UniProt P50281); experiment: Dose Response confirmation of uHTS hits for a small molecule inhibitors of MT1-MMP activation in a fluorescence assay set 1.; type: functional
[14] = target: Hepatocyte nuclear factor 4-alpha (Homo sapiens, UniProt P41235); type: functional, cell-based;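 also: biochemical luminescence-based dose-response counterscreen measuring inhibition of HNF4 dimerization, run alongside a screen for blockers of ABHD5–perilipin-5 interaction; split luciferase complementation of HNF4 fusion proteins in cell lysate measuring dimerization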
Beta-galactosidase = Beta-galactosidase (Escherichia coli, UniProt Q8VNN2); experiment: Dose response counterscreen for EBI2 assay utilizing the enzyme, b-galactosidase.; type: functional
Chain of Beta-galactosidase (Q8VNN2 whole entry): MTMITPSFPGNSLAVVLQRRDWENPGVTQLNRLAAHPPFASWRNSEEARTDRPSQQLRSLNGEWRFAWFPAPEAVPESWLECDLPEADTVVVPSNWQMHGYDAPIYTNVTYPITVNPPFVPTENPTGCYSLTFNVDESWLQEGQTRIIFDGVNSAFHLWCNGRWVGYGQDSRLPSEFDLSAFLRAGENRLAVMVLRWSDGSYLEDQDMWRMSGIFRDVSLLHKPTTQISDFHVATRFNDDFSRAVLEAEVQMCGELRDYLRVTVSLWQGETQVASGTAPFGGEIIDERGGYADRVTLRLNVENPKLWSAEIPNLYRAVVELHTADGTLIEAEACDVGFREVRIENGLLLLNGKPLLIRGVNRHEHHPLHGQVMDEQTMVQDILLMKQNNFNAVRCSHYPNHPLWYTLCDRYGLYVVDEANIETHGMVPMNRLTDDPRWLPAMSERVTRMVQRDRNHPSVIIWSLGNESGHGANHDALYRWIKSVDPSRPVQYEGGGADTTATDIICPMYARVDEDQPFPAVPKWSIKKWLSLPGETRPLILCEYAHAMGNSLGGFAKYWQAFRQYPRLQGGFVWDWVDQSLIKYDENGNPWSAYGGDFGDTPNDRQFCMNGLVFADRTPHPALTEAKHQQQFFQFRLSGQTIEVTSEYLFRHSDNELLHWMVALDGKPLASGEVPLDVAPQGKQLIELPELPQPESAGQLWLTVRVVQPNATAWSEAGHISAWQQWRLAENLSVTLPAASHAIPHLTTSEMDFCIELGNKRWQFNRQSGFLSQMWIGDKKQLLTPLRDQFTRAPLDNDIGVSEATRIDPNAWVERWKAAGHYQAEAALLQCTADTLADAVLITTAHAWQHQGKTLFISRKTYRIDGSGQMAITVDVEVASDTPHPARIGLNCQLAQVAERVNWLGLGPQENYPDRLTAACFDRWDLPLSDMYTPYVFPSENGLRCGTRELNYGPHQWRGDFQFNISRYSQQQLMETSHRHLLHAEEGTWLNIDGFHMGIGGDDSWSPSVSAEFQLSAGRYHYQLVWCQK

T1 sequence (Q79MP6 whole entry): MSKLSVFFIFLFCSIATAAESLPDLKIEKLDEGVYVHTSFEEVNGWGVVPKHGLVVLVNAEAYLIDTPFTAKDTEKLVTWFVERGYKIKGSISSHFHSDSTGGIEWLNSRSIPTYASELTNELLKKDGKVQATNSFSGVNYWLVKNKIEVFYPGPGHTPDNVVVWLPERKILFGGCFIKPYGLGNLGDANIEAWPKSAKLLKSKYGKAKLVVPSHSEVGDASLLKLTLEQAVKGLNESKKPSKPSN
Chain of Fructose-bisphosphate aldolase (P9WQA3 whole entry): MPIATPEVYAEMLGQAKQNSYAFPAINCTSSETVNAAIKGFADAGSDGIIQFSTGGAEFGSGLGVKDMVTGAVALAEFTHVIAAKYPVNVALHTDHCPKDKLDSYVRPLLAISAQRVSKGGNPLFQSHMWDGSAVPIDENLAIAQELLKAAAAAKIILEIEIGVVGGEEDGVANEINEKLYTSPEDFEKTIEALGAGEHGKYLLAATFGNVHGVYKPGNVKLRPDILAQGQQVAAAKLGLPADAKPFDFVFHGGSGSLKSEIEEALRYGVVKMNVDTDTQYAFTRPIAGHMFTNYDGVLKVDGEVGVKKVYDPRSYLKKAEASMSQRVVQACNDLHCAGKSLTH
Chain of Protein-tyrosine kinase 2-beta (Q14289 whole entry): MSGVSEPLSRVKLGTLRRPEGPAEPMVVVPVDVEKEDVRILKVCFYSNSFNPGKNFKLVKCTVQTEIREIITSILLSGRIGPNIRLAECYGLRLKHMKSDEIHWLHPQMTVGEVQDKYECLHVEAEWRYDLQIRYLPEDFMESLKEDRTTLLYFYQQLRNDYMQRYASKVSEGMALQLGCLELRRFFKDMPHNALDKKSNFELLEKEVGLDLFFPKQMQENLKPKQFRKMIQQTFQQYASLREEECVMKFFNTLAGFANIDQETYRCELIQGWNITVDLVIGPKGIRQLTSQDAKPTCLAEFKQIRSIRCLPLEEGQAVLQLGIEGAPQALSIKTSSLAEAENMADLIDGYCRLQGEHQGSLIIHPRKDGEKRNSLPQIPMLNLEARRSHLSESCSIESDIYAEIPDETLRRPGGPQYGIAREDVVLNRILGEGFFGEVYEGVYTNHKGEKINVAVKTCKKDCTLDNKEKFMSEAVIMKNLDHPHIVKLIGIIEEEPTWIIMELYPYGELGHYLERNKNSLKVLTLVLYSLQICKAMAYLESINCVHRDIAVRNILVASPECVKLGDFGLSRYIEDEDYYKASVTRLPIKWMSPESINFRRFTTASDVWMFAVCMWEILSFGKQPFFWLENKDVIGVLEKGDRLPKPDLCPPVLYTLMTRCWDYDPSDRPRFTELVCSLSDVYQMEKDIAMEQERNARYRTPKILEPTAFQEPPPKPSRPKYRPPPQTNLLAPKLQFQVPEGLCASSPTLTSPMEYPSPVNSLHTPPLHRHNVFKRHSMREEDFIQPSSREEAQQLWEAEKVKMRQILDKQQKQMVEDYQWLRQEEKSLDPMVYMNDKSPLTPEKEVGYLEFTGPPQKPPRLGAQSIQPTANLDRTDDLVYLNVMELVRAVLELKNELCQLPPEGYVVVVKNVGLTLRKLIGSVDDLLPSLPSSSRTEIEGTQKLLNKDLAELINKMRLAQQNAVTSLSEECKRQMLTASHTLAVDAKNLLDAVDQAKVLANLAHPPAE
Chain of G-protein coupled receptor 55 (Q9Y2T6 whole entry): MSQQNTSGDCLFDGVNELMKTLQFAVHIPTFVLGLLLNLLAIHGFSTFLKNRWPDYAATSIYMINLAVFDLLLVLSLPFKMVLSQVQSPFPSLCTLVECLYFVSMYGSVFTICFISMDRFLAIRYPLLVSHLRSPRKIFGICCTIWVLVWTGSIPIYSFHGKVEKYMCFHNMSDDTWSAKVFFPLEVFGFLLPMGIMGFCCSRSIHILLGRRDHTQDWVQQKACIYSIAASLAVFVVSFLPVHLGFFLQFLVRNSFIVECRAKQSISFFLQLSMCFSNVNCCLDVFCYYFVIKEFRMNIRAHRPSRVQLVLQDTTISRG
Chain of Beta-lactamase (Salmonella choleraesuis (strain SC-B67), UniProt Q5J463) (Q5J463 whole entry): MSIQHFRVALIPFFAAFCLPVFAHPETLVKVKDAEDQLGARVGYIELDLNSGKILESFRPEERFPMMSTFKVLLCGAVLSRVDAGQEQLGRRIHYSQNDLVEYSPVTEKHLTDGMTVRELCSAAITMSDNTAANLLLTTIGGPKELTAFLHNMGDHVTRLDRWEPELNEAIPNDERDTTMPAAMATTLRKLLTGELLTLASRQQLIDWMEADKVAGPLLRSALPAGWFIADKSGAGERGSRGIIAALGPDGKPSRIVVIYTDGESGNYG
Chain of Hepatocyte nuclear factor 4-alpha (P41235 whole entry, the tested form may be a part): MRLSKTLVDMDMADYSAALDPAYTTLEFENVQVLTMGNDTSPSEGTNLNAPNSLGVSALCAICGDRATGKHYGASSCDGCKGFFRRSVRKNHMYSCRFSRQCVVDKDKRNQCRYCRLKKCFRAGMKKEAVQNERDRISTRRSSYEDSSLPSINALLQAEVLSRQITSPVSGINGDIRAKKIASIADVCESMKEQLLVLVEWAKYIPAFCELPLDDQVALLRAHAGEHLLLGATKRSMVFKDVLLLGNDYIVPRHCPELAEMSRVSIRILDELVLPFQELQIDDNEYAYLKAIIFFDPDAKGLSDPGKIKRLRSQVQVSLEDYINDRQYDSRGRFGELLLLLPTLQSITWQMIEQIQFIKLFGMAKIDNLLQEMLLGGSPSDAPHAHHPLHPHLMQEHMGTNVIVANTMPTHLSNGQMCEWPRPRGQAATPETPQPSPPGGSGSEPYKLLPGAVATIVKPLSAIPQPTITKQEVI
Chain of Adenosylmethionine-8-amino-7-oxononanoate aminotransferase (P9WQ81 whole entry): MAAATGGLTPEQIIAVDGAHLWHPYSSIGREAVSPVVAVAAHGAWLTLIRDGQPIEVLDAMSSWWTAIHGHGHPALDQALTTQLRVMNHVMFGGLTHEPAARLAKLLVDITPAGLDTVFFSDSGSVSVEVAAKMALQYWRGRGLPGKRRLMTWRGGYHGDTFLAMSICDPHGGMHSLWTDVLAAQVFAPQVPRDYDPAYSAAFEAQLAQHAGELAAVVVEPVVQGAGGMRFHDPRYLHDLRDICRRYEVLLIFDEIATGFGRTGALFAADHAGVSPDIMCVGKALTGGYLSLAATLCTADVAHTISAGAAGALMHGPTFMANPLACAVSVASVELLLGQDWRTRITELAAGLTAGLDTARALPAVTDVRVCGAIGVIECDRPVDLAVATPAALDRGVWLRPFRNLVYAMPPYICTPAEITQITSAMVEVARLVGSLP

**Q.** Which AC50 [1] does the source give for `CCCN1C(=O)/C(=C\C=C2\N(CC)c3ccccc3C2(C)C)SC1=S` here?
**A.** The AC50 was > 52 µM (inactive).

**Q.** What about the IC50 [2] of the same compound?
**A.** Its IC50 is 0.824 µM (active).

**Q.** Which CC50 [3] does the source give for `C(=C\c1nccc2c1[nH]c1ccccc12)/c1ccccc1` here?
**A.** The CC50 was 25.4 µM (active).

**Q.** And the IC50 [4]?
**A.** The IC50 was > 0.37 µM (active).

**Q.** With `O=C(COc1ccc2ccc(=O)oc2c1)Nc1cccnc1` as the compound, how does the AC50 [5] read?
**A.** Its AC50 is 13.6 µM (active).

**Q.** For `O=P(O)(O)c1ccccc1OCc1ccccc1`, which IC50 [6] is on record?
**A.** Its IC50 is 2.21 µM (active).

**Q.** And the IC50 (Beta-lactamase [7])?
**A.** Its IC50 is > 59.6 µM (inactive).

**Q.** And the IC50 (Beta-lactamase [8])?
**A.** Its IC50 is > 59.6 µM (inactive).

**Q.** What about the IC50 (Beta-lactamase [9]) of the same compound?
**A.** Its IC50 is > 59.6 µM (inactive).

**Q.** Which AC50 (Caspase-6) does the source give for `Cc1ccc2[nH]c3c(c2c1)CCCC3NCCO` (stereo unspecified) here?
**A.** Its AC50 is 22.2 µM (active).

**Q.** What about the AC50 [10] of the same compound?
**A.** The AC50 was 135 µM (active).

**Q.** With `C[C@@H](NC(=O)C[C@H]1C[C@@H]2c3cc(NC(=O)c4cccnc4)ccc3O[C@@H]2[C@@H](CO)O1)c1ccccc1` as the compound, how does the AbsAC35 [11] read?
**A.** The AbsAC35 was 222.38 µM.

**Q.** What does the source list for `O=C(CF)NC(Nc1cccc2cccnc12)C(Cl)(Cl)Cl` (stereo unspecified)?
**A.** IC50 [12]: > 10 µM (active); IC50 [13]: 2.03 µM (active)

**Q.** Which IC50 [14] does the source give for `COc1ccc(C(C(=O)Nc2c(C)cccc2C)n2c(=O)c(-c3ccco3)nc3ccccc32)cc1` (stereo unspecified) here?
**A.** Its IC50 is 2.42 µM (active).

**Q.** For `O=C(c1ccc(-n2cccn2)cc1)N1CCN(c2ncccc2C(F)(F)F)CC1`, which IC50 (Beta-galactosidase) is on record?
**A.** The IC50 was > 80 µM (inactive).
